Experimental findings from PubChem BioAssay (NCI) are described below.

Molecules are shown by their SMILES.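 96-well plates; 48 h exposure; 5 concentrations. Endpoints by linear interpolation between flanking doses. Not reached: highest tested concentration assigned. At the GI50, growth is halved. TGI marks complete inhibition of growth.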

For the assay, the system named is HS 578T breast. In words: NCI anticancer screen, dose series, 48 h.
On to `COC(=O)c1cc2c(cc1Cl)SC(N(N(C)C)S(=O)(=O)c1ccc(Cl)cc1)=NS2(=O)=O`, for which the GI50 was 18.8 µM and the TGI came to 48.6 µM. Turning to `CCOC(=O)c1cnc2c(cnn2CC)c1NN=C(C)C`, the GI50 was 24.1 µM and the TGI is 87.9 µM.

For `C#CC#CC#CC#CC#CC#CC#CC#CCC1OC[C@H](COC(=O)O[C@@H](C(=O)O[C@H]2C[C@@]3(O)[C@@H](OC(=O)c4ccccc4)[C@@H]4[C@]5(OC(C)=O)CO[C@@H]5C[C@H](O)[C@@]4(C)C(=O)[C@H](OC(C)=O)C(=C2C)C3(C)C)[C@@H](NC(=O)c2ccccc2)c2ccccc2)O1` (stereo partly drawn), the GI50 was 0.297 µM and the TGI was over 17.3 µM.

Take `Nc1c(O)c(S(=O)(=O)O)c(O)c2c1C(=O)c1ccccc1C2=O`: the GI50 is 4.69 µM and the TGI was over 100 µM. Take `CC12CCC(O)CC1CCC1C2CCC2(C)C(C3=CC(=O)OC3)CCC12` (stereo not drawn): the GI50 is 3.48 µM and the TGI was over 48.5 µM. Take `c1ccc2c(c1)ccc1c3ccccc3ccc21`: the GI50 is over 50 µM and the TGI was over 50 µM. On to `Cc1ccccc1NC(=O)c1sc2nc3c(cc2c1N)C(=O)CCC3`, for which the GI50 was 1.71 µM and the TGI came to 5.56 µM. Consider `C=CCNc1cccc2c1C(=O)c1ccccc1C2(O)CC=C` (stereo not drawn), for which the GI50 was 18.8 µM and the TGI was determined as 43.5 µM. Regarding `COc1ccc2sc3c(NCCCNCCO)nc4ccccc4c3c(=O)c2c1`, the GI50 was 1.42 µM and the TGI was 3.48 µM. Turning to `CC1(C)CC[C@]2(C(=O)O)CC[C@]3(C)[C@H](CC[C@@H]4[C@@]5(C)CCC(=O)C(C)(C)[C@@H]5CC[C@]43C)[C@H]2[C@H]1OC(=O)C(F)(F)F`, the GI50 is 20.3 µM and the TGI was determined as 83.5 µM. On the same counts, the results for `CC(C)(C)n1cc(-c2ccnc(NCCNS(=O)(=O)c3cccc4ccccc34)c2)c(-c2cccc(F)c2)n1` are 16.7 µM and 46 µM. With `CC(C)[C@@H](CS(=O)(=O)C(C)C)N1C(=O)[C@@](C)(CC(=O)O)C[C@H](c2cccc(Cl)c2)[C@H]1c1ccc(Cl)cc1`, the GI50 is 17.1 µM and the TGI was 72.1 µM. In the case of `Clc1ccc(Nc2nc3ccccc3c3occc23)cc1`, the GI50 is 6.95 µM and the TGI came out at 16.3 µM. With `CC(C)(C)c1nnc2n(c1=O)N=CC(c1ccc(Br)cc1)S2` (stereo not drawn), the GI50 was 35.2 µM and the TGI is 91.1 µM. On to `CN1CCN(c2cc(Nc3cc(C4CC4)[nH]n3)nc(Nc3ccc(CC(=O)NCc4cccc(F)c4)cc3)n2)CC1`, for which the GI50 was 0.28 µM and the TGI worked out at 2.34 µM. The compound `OC(C(=Nc1ccccc1)c1ccccc1)c1ccccc1` (stereo not drawn) yielded a TGI of 7.11 µM. In the case of `CN(C)CCCC(=O)Nc1ccc(Cn2nnc3c2C(=O)c2nnn(Cc4ccc(NC(=O)CCCN(C)C)cc4)c2C3=O)cc1`, the GI50 is 2.93 µM and the TGI came out at 7.68 µM.

In the case of `O=C1C(=O)c2c(nc3ncccn23)-c2ccccc21`, the GI50 was 0.244 µM and the TGI worked out at 0.631 µM.

Take `COc1cc(/C=C/C(=O)c2cc(OC)c(OC)c(OC)c2)cc(OC)c1OC`: the GI50 is 2.76 µM and the TGI was 59.1 µM. For the compound `Cc1[nH]nc(C(=O)Nc2n[nH]c3ccccc23)c1[N+](=O)[O-]`, the GI50 was over 68.7 µM and the TGI was over 100 µM. For `Cc1ccc(-n2c(-c3ccc(Cl)cc3)cs/c2=N\NC(=O)COc2n[nH]c(=O)c3ccccc23)cc1`, the GI50 was 27.5 µM and the TGI is over 100 µM.

For the compound `C=C1C(=O)O[C@H]2[C@H]1CC/C(COC(=O)C(=O)c1cn(C)c3ccc(OC)cc13)=C\CC[C@@]1(C)O[C@@H]21`, the GI50 is 11.3 µM and the TGI was 50.4 µM.

As to `COc1cccc2c(Nc3ccc(C(=O)NCCN(C)C)cc3)cc(-c3ccccc3)nc12`, the GI50 was 21.4 µM and the TGI came out at 53.6 µM. On the same counts, the results for `Nc1nc(Nc2ccc3c(c2)CCC(N2CCCC2)CC3)nn1-c1cc2c(nn1)-c1ccccc1CCC2` (stereo not drawn) are 1.08 µM and 3.66 µM. In the case of `C[C@@]12CCC[C@@](C)(C(=O)O)C1CC[C@@]13CC(=O)[C@@](CO)(CCC12)C3` (stereo partly drawn), the GI50 was over 100 µM and the TGI is over 100 µM. With `NCC(=O)CCC(=O)O`, the GI50 is over 100 µM and the TGI is over 100 µM.

With `COc1cc2c3c(n(C)c(=O)c2cc1OC)-c1cc2c(cc1/C3=C\[C@@H](N)CCCCN)OCO2`, the GI50 was 15.9 µM and the TGI was 81.8 µM.
